Key:
[1] = test system: CDKI pathway (CMV promoter stimulation by p21) in HT1080 fibrosarcoma cells; assay: CDKI pathway inhibition cellular assay (CMV-GFP induction by IPTG-inducible p21); type: cell-based, human; details: IPTG-induced p21, CMV-GFP / Hoechst 33342, read-out: Cell-based Assay EC50
Procedure: The compounds described below are shown in Table 1 and the structures of some novel compounds according to the invention are shown in FIG. 1. […] All the compounds were tested for the ability to inhibit the CDKI pathway in a cellular assay described in our previous patent application PCT/US06/01046. This assay is based on the induction of green fluorescent protein (GFP) expression from the cytomegalovirus (CMV) promoter in human HT1080 fibrosarcoma cells that express CDKI p21 from an isopropyl-β-thio-galactoside (IPTG)-inducible promoter. The compound activity as a CDKI pathway inhibitor is measured by its ability to prevent the stimulation of the CMV promoter upon the addition of p21-inducing IPTG. CMV promoter activity is measured by the ratio of GFP fluorescence to the relative cell number, as determined by staining cellular DNA with Hoechst 33342.

[2] = Solubility in 20% propylene glycol; type: physicochemical; details: 1 mM, 40° C., 30 min, centrifuged, OD reading
Procedure: (§1) The compounds were also tested for solubility in 20% propylene glycol and in water, as follows. Compounds (dry powder) were dissolved in 20% propylene glycol at a concentration of 1 mM at a temperature of 40° C. with occasional vortexing. After 30 min, the solution was centrifuged at 10,000×g for 5 min. Serial dilutions of the cleared supernatant were prepared and used to measure the compound concentrations through OD reading, relative to 1 μM standard solution of the same compound. The results of the measurement were expressed as % solubility of the compound at 1 mM in 20% propylene glycol. To determine water solubility, the compounds (dry powder) were initially dissolved in water at a concentration of 100 mM at a temperature of 40° C. with occasional vortexing. After 30 min, the solution was centrifuged at 10,000×g for 5 min, and the formation of an insoluble pellet was monitored. At subsequent steps, the compound was attempted to be dissolved at lower concentrations, until no pellet was observed after centrifugation, indicating complete solution of the compound.

Water solubility = type: physicochemical; details: 40° C., 30 min, no pellet after centrifugation
Procedure: as §1

MDA-MB-231 = MDA-MB-231 orthotopic TNBC xenograft; type: in vivo, female SCID mice; details: 1 mg/kg doxorubicin single dose, three rounds
Procedure: Once tumors were formed, mice were randomized into 4 cohorts (n=10) and treated, at 7-10 day intervals, with three rounds of: vehicle (5 daily doses), 1 mg/kg doxorubicin (single dose), 40 mg/kg Senexin B (5 daily doses) or doxorubicin (single dose)+Senexin B (5 daily doses).

MDA-MB-468 = MDA-MB-468 TNBC xenograft model; type: in vivo, female nude mice; details: 40 mg/kg Senexin B daily i.p.; 4 mg/kg doxorubicin two injections two weeks apart
Procedure: Female nude mice were inoculated with MDA-MB-468 cells, and once palpable tumors were formed, mice were randomized into 4 groups, treated daily i.p. with vehicle alone (n=12), 40 mg/kg Senexin B, two injections with 4 mg/kg doxorubicin two weeks apart, or doxorubicin combined with Senexin B (n=8 in each of the latter groups).

[3] = test system: MDA-MB-468 TNBC tumor invasion; assay: Histological analysis of MDA-MB-468 tumor invasion (H&E); type: in vivo, female nude mice; details: tumors from FIG. 15B experiment
From the text: At the end of the experiment shown in FIG. 15B, mice were sacrificed, tumors were removed, formalin fixed, sectioned and processed for histological analysis after H&E staining.

SMILES | EC50 [1] [µM] | % solubility at 1 mM in 20% propylene glycol [2] [%] | Water Solubility (Water solubility) | lower body weight than control mice (MDA-MB-231) | tumor growth (tumor volumes after 30 days of treatment) (MDA-MB-468) | invasive or non-invasive tumor growth [3]
COCCNC(=O)c1ccc(CCNc2ncnc3ccc(C#N)cc23)cc1 [SNX2-1-150] | 2.2 | 100 | Soluble at 10 mM |  |  | 
N#Cc1ccc2ncnc(NCCc3ccc(C(=O)N4CCCCC4)cc3)c2c1 [SNX2-1-152] | 3.83 | 100 |  |  |  | 
CN1CCN(C(=O)c2ccc(CCNc3ncnc4ccc(C#N)cc34)cc2)CC1 [SNX2-1-153] | 5.21 | 100 | Soluble at 10 mM |  |  | 
CN(C)CCNC(=O)c1ccc(CCNc2ncnc3ccc(C#N)cc23)cc1 [SNX2-1-155] | 4.57 | 100 | Soluble at 10 mM |  |  | 
COc1cccc2c1C(=O)c1c(O)c3c(c(O)c1C2=O)C[C@@](O)(C(=O)CO)C[C@@H]3O[C@H]1C[C@H](N)[C@H](O)[C@H](C)O1 [doxorubicin, reference compound] |  |  |  | about 15% | significantly slowed down the tumor growth | displayed invasive growth
